Results taken from ChEMBL document CHEMBL3286186, “Design of α7 nicotinic acetylcholine receptor ligands in quinuclidine, tropane and quinazoline series. Chemistry, molecular modeling, radiochemistry, in vitro and in rats evaluations of a [(18)F] quinuclidine derivative” (Eur J Med Chem, 2014).

Tests used:
Brain = test: Biodistribution in Wistar rat brain at 5 +/- 2 MBq, iv after 60 mins by gamma counting; assay type: ADME, organism-based; conditions: in vivo, 1 h
Striatum = test: Biodistribution in Wistar rat striatum at 5 +/- 2 MBq, iv after 60 mins by gamma counting in presence of alpha7 nAChR antagonist methyllycaconitine; assay type: organism-based; conditions: in vivo, 1 h
Cerebellum = test: Biodistribution in Wistar rat cerebellum at 5 +/- 2 MBq, iv after 60 mins by gamma counting in presence of alpha7 nAChR antagonist methyllycaconitine; assay type: organism-based; conditions: in vivo, 1 h
Hippocampus = test: Biodistribution in Wistar rat hippocampus at 5 +/- 2 MBq, iv after 60 mins by gamma counting in presence of alpha7 nAChR antagonist methyllycaconitine; assay type: organism-based; conditions: in vivo, 1 h
Midbrain = test: Biodistribution in Wistar rat midbrain at 5 +/- 2 MBq, iv after 60 mins by gamma counting in presence of alpha7 nAChR antagonist methyllycaconitine; assay type: organism-based, Brain; conditions: in vivo, 1 h
Cortex = test: Biodistribution in Wistar rat cortex at 5 +/- 2 MBq, iv after 60 mins by gamma counting in presence of alpha7 nAChR antagonist methyllycaconitine; assay type: organism-based; conditions: in vivo, 1 h
Hypothalamus = test: Biodistribution in Wistar rat hypothalamus at 5 +/- 2 MBq, iv after 60 mins by gamma counting in presence of alpha7 nAChR antagonist methyllycaconitine; assay type: organism-based; conditions: in vivo, 1 h
[1] = molecular target: Neuronal acetylcholine receptor subunit alpha-7 (Rattus norvegicus, UniProt Q05941); test: Displacement of [125I]-alpha-bungarotoxin from alpha7 nicotinic acetylcholine receptor in Wistar rat frontal cortex by gamma counting; assay type: tissue-based
Chain of Neuronal acetylcholine receptor subunit alpha-7 (Q05941 whole entry): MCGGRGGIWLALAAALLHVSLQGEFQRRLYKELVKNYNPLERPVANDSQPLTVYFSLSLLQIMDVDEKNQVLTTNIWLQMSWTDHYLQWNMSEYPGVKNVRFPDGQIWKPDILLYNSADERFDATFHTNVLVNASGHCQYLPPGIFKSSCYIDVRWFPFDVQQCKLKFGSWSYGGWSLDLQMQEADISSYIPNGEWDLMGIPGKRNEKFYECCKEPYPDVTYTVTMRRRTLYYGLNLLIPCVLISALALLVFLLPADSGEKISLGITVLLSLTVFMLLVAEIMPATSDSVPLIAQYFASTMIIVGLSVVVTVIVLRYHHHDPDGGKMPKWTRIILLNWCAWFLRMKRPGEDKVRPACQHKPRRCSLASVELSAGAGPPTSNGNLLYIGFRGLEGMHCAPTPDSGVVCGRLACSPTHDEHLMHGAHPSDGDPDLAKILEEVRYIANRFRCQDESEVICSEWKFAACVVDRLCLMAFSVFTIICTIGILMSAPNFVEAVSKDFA

Row | SMILES | Ki [1] [nM] | also measured
1 | O=C(N[C@H]1CN2CCC1CC2)c1ccc([18F])cc1 | – | Drug uptake (Brain): Active; Drug uptake (Striatum): Not Active; Drug uptake (Cerebellum): Not Active; Drug uptake (Hippocampus): Not Active; Drug uptake (Midbrain): Not Active; Drug uptake (Cortex): Not Active; Drug uptake (Hypothalamus): Not Active
2 | CN1[C@@H]2CC[C@H]1C[C@@H](NC(=O)c1ccc(Cl)cc1)C2 | > 1000 | –
3 | CN1[C@@H]2CC[C@H]1C[C@@H](NC(=O)c1ccc(-c3cccs3)s1)C2 | 12 | –
4 | CN1[C@@H]2CC[C@H]1C[C@@H](NC(=O)c1cccs1)C2 | > 1000 | –
5 | CN1[C@@H]2CC[C@H]1C[C@@H](NC(=O)c1ccc3sccc3c1)C2 | 108 | –
6 | CN1[C@@H]2CC[C@H]1C[C@@H](NC(=O)c1ccc(-c3ccco3)s1)C2 | 14 | –
7 | CN1[C@@H]2CC[C@H]1C[C@@H](NC(=O)c1ccc(Br)s1)C2 | 78 | –
8 | CN1[C@@H]2CC[C@H]1C[C@@H](NC(=O)c1ccc3occc3c1)C2 | 133 | –
